The source of these data is US8354569B2, “Plant acyltransferases specific for long-chained, multiply unsaturated fatty acids” (University of Bristol, priority 2003, dated 2013).

Test [1] concerns LPCAT. The test is described as follows: LPCAT acyl-CoA substrate specificity, Mortierella microsomal membranes. It counts as biochemical, Mortierella alpina. The following applies: for Percentage incorporation in comparison with the incorporation of oleic acid: Mortierella LPCAT, 20 nmol acyl-CoA, sn-1-palmitolysophosphatidylcholine, DTNB assay. On the procedure:
(§1) Mortierella cultures were harvested after 5 days and placed on ice. All further procedures were carried out at 4° C. The mycelium was suspended in 0.1 M sodium phosphate buffer (pH 7.2), comprising 0.33 M sucrose, 0.1% BSA (free from fatty acids), 1000 units of catalase/ml and 1 mM Pefabloc. The following steps were carried out as described under “preparations of microsomal membranes from cotyledons of maturing seeds of sunflower and linseed”.
(§2) LPCAT activity was determined in a continuous spectraphotometric assay in which 5,5-dithiobis-2-nitrobenzoate (DTNB) was used, and the change in absorption at 409 nm and 25° C. was monitored. The assay comprised sn-1-palmitolysophosphatidylcholine (30 nmol) as acyl acceptor, DTNB (50 nmol) and 20 nmol of one of the following acyl-CoAs: myristoyl-CoA (14:0-CoA), palmitoyl-CoA (16:0-CoA), palmitoleoyl-CoA (16:1-CoA), stearoyl-CoA (18:0-CoA), oleoyl-CoA (18:1-CoA), linoleoyl-CoA (18:2-CoA), dihomo-gamma-linolenyl-CoA (20:3-CoA) or arachidonyl-CoA (20:4-CoA) in 1 ml of 0.1 M phosphate buffer, pH 7.2. The reaction was started by addition of microsomal membrane preparation. The amount of microsomal membrane preparation added was 5 μg (Mortierella and sunflower) or 30 μg (linseed).

Test [2] deals with LPAAT. The test is described as follows: LPAAT acyl-CoA substrate specificity, sunflower microsomal membranes. It counts as biochemical. The note with it: for Percentage incorporation in comparison with the incorporation of oleic acid: 20 nmol acyl-CoA, sn-1-oleoyl-lysophosphatidic acid, DTNB assay. As for the experimental part:
(§3) All the procedures were carried out at 4° C. The cotyledons of maturing sunflower seeds and linseed were harvested approximately 10 days after anthesis and suspended in 0.1 M sodium phosphate buffer (pH 7.2), comprising 0.33 M sucrose and 0.1% BSA (free from fatty acids). After comminution in a glass homogenizer, the homogenate was centrifuged for 30 minutes at 20 000×g. The supernatant was filtered through one layer of Miracloth and centrifuged for 90 minutes in an ultracentrifuge at 100 000×g. The pelleted microsomal membranes were washed with 0.1 M sodium phosphate buffer (pH 7.2) and resuspended in a small volume of buffer, using a glass homogenizer. The microsomal membrane preparations were either immediately processed or stored at −80° C.
(§4) The specificity of the LPAAT was studied in order to verify whether the enzyme has a preference for certain acyl-CoAs, in particular to determine whether the LPAAT from oil seed plants converts LCPUFA-CoAs. […] The assay comprised sn-1-oleoyl-lysophosphatidic acid (30 nmol), DTNB (50 nmol) and 20 nmol of one of the following acyl-CoAs: palmitoyl-CoA (16:0-CoA), stearoyl-CoA (18:0-CoA), oleoyl-CoA (18:1-CoA), linoleoyl-CoA (18:2-CoA), dihomo-gamma-linolenyl-CoA (20:3-CoA) or arachidonyl-CoA (20:4-CoA) in 1 ml of 0.1 M phosphate buffer, pH 7.2. […] Microsomal membranes (equivalent to 10 μg of protein in the case of Mortierella and 40 μg of protein in the case of sunflower and linseed) were added to the reaction mixture in order to start the reaction.

Test [3] concerns GPAT. The test is described as follows: GPAT acyl-CoA substrate specificity, sunflower microsomal membranes. The test is classed as biochemical. The note with it: for Percentage incorporation in comparison with the incorporation of oleic acid: 0.2 mM acyl-CoA, 5 mM [14C] G3P, 5 minutes. As for the experimental part:
as §3
(§5) The specificity of the GPAT was studied to verify whether the enzyme has a preference for certain acyl-CoAs, in particular to determine whether the GPAT from oil seed plants converts LCPUFA-CoAs. Microsomal membranes were incubated with 0.5 mM (Mortierella) or 0.2 mM (sunflower and linseed) of one of the following acyl-CoAs: myristoyl-CoA (14:0-CoA), palmitoyl-CoA (16:0-CoA), palmitoleoyl-CoA (16:1-CoA), stearoyl-CoA (18:0-CoA), oleoyl-CoA (18:1-CoA), linoleoyl-CoA (18:2-CoA), dihomo-gamma-linolenoyl-CoA (20:3-CoA) or arachidonyl-CoA (20:4-CoA) and 5 mM [^14C] G3P. Microsomal membranes (equivalent to 50 μg of protein in the case of sunflower and Mortierella and 150 μg of protein in the case of linseed) were added to the reaction mixture in order to start the reaction. After incubation for 5 minutes, the lipids were extracted by the method of Bligh & Dyer, and the radioactivity incorporated in complex lipids was determined.

For test [4], the system named is LPAAT. The test is described as follows: LPAAT acyl-CoA substrate specificity, Mortierella microsomal membranes. It counts as biochemical, Mortierella alpina. The note with it: for Percentage incorporation in comparison with the incorporation of oleic acid: Mortierella LPAAT, 20 nmol acyl-CoA, sn-1-oleoyl-lysophosphatidic acid, DTNB assay. As for the experimental part:
as §1, §4

Test [5] has as its system GPAT. The test is described as follows: GPAT acyl-CoA substrate specificity, linseed microsomal membranes. The test is classed as biochemical. The note with it: for Percentage incorporation in comparison with the incorporation of oleic acid: 0.2 mM acyl-CoA, 5 mM [14C] G3P, 5 minutes. As for the experimental part: as §3, §5
The subject of test [6] is LPAAT. The test is described as follows: LPAAT acyl-CoA substrate specificity, linseed microsomal membranes. The following applies: for Percentage incorporation in comparison with the incorporation of oleic acid: 20 nmol acyl-CoA, sn-1-oleoyl-lysophosphatidic acid, DTNB assay. It counts as biochemical. On the procedure: as §3, §4
For test [7], the system named is LPCAT. The test is described as follows: LPCAT acyl-CoA substrate specificity, linseed microsomal membranes. The test is classed as biochemical. The following applies: for Percentage incorporation in comparison with the incorporation of oleic acid: 20 nmol acyl-CoA, sn-1-palmitolysophosphatidylcholine, DTNB assay. As for the experimental part: as §3, §2
Test [8] concerns LPCAT. The test is described as follows: LPCAT acyl-CoA substrate specificity, sunflower microsomal membranes. The test is classed as biochemical. The note with it: for Percentage incorporation in comparison with the incorporation of oleic acid: 20 nmol acyl-CoA, sn-1-palmitolysophosphatidylcholine, DTNB assay. On the procedure: as §3, §2
Test [9] has as its system GPAT. The test is described as follows: GPAT acyl-CoA substrate specificity, Mortierella microsomal membranes. The test is classed as biochemical, Mortierella alpina. The note with it: for Percentage incorporation in comparison with the incorporation of oleic acid: Mortierella GPAT, 0.5 mM acyl-CoA, 5 mM [14C] G3P, 5 minutes. On the procedure:
as §1, §5

Turning to `CCCCCCCCCCCCCC(=O)SCCNC(=O)CCNC(=O)[C@H](O)C(C)(C)COP(=O)(O)OP(=O)(O)OC[C@H]1O[C@@H](n2cnc3c(N)ncnc32)[C@H](O)[C@@H]1OP(=O)(O)O` [Myristoyl-CoA, myristoyl-CoA], the “Percentage incorporation in comparison with the incorporation of oleic acid” value (“Percentage incorporation in comparison” below) in the test with LPCAT [1] came to 0%; in the test with LPAAT [2], 16%; in the test on GPAT [3] it was 57%; with LPAAT [4], 55%; in the test with GPAT [5], 100%; in the test with LPAAT [6], 30%. Further, the “Percentage incorporation in comparison” value is 0% in the test with LPCAT [7] and 1% in the test with LPCAT [8].

`CCCCCCCC/C=C\CCCCCCCC(=O)SCCNC(=O)CCNC(=O)[C@H](O)C(C)(C)COP(=O)(O)OP(=O)(O)OC[C@H]1O[C@@H](n2cnc3c(N)ncnc32)[C@H](O)[C@@H]1OP(=O)(O)O` [Oleoyl-CoA, oleoyl-CoA]: the “Percentage incorporation in comparison” value in the test on LPCAT [1], in the test on LPAAT [2], in the test on GPAT [3], in the test on LPAAT [4], in the test with GPAT [5] and in the test with LPAAT [6] was 100% in each case. The “Percentage incorporation in comparison” value in the test with LPCAT [7], in the test on LPCAT [8] and in the test with GPAT [9] was 100% in each case. The “Rate of the incorporation of oleic acid” value in the test on LPCAT [1] (Mortierella alpina LPCAT) is 350 nmol/min/mg protein; in the test on LPAAT [2] it was 28 nmol/min/mg protein; with GPAT [3], 13 nmol/min/mg protein; in the test on LPAAT [4] (Mortierella alpina LPAAT), 51 nmol/min/mg protein; with GPAT [5], 6 nmol/min/mg protein; in the test on LPAAT [6], 25 nmol/min/mg protein. For the same compound, the entries for the “Rate of the incorporation of oleic acid” value in the test on LPCAT [7], in the test with LPCAT [8] and with GPAT [9] (Mortierella alpina GPAT) were 9 nmol/min/mg protein, 360 nmol/min/mg protein and 30 nmol/min/mg protein, respectively. Moreover, the “LPCAT activity (in words)” value with LPCAT [7] is “converted equally efficiently”.

As for `CCCCC/C=C\C/C=C\CCCCCCCC(=O)SCCNC(=O)CCNC(=O)[C@H](O)C(C)(C)COP(=O)(O)OP(=O)(O)OC[C@H]1O[C@@H](n2cnc3c(N)ncnc32)[C@H](O)[C@@H]1OP(=O)(O)O` [Linoleoyl-CoA, linoleoyl-CoA], the “Percentage incorporation in comparison” value with LPCAT [1] was found to be 40%; in the test on LPAAT [2] it was 250%; with GPAT [3], 85%; with LPAAT [4], 90%; in the test on GPAT [5], 90%; with LPAAT [6], 120%. Also, the “Percentage incorporation in comparison” value with LPCAT [7] is given as 100%; in the test with LPCAT [8] it was 120%; in the test on GPAT [9], 90%. For the same compound, in the test with LPCAT [7], the “LPCAT activity (in words)” value is recorded as “converted equally efficiently”.

Turning to `CCCCCC/C=C\CCCCCCCC(=O)SCCNC(=O)CCNC(=O)[C@H](O)C(C)(C)COP(=O)(O)OP(=O)(O)OC[C@H]1O[C@@H](n2cnc3c(N)ncnc32)[C@H](O)[C@@H]1OP(=O)(O)O` [Palmitololeoyl-CoA, palmitoleoyl-CoA], the “Percentage incorporation in comparison” value with LPCAT [1] is on record as 60%; in the test with LPAAT [2], 140%; in the test on LPAAT [4], 70%; with LPAAT [6] it was 140%; in the test on LPCAT [7], 180%; in the test with LPCAT [8], 90%.

Regarding `CCCCCCCCCCCCCCCCCC(=O)SCCNC(=O)CCNC(=O)[C@H](O)C(C)(C)COP(=O)(O)OP(=O)(O)OC[C@H]1O[C@@H](n2cnc3c(N)ncnc32)[C@H](O)[C@@H]1OP(=O)(O)O` [Stearoyl-CoA, stearoyl-CoA], the “Percentage incorporation in comparison” value with LPCAT [1] is listed as 10%; in the test on LPAAT [2] it was 14%; in the test on GPAT [3], 40%; with LPAAT [4], 36%; with GPAT [5] it was 65%; in the test on LPAAT [6], 30%. Besides, the “Percentage incorporation in comparison” value in the test with LPCAT [7] came to 15%; in the test on LPCAT [8] it was 18%; in the test with GPAT [9], 50%.

With `CCCCC/C=C\C/C=C\C/C=C\CCCCCCC(=O)SCCNC(=O)CCNC(=O)[C@H](O)C(C)(C)COP(=O)(O)OP(=O)(O)OC[C@H]1O[C@@H](n2cnc3c(N)ncnc32)[C@H](O)[C@@H]1OP(=O)(O)O` [20:3-CoA, dihomo-gamma-linolenoyl-CoA], the “Percentage incorporation in comparison” value in the test with LPCAT [1] was found to be 85%; in the test on GPAT [3], 55%; with LPAAT [4], 65%; with LPCAT [7] it was 0%; with GPAT [9] it was 80%. For the same compound, the “LPCAT activity (in words)” value in the test with LPCAT [7] is “no LPCAT activity was detected”.

For the compound `CCCCCCCCCCCCCCCC(=O)SCCNC(=O)CCNC(=O)[C@H](O)C(C)(C)COP(=O)(O)OP(=O)(O)OC[C@H]1O[C@@H](n2cnc3c(N)ncnc32)[C@H](O)[C@@H]1OP(=O)(O)O` [Palmitoyl-CoA, palmitoyl-CoA], the “Percentage incorporation in comparison” value is 25% in the test on LPCAT [1]; 15% in the test with LPAAT [2]; 64% in the test on GPAT [3]; 40% in the test on LPAAT [4]; 90% in the test with GPAT [5]; 25% with LPAAT [6]. The “Percentage incorporation in comparison” value in the test with LPCAT [7] was 5%; in the test on LPCAT [8] (listed as SSA Palmitoyl-CoA), 13%; with GPAT [9], 66%.
